Consider 1 molecule from PubChem BioAssay (NCI).

Among the test systems are A498 renal; CCRF-CEM leukemia; DU-145 prostate; HL-60(TB) leukemia; HT29 colon; K-562 leukemia; MOLT-4 leukemia; NCI-H522 lung; NCI/ADR-RES ovarian; OVCAR-3 ovarian; OVCAR-4 ovarian; PC-3 prostate; SK-MEL-28 melanoma; SK-OV-3 ovarian; SNB-19 CNS; SR leukemia; SW-620 colon; T-47D breast; UACC-257 melanoma.
Common to all, as to assay: inhibition of tumour cell growth, NCI panel, 48 h

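96-well plates; 48 h exposure; 5 concentrations. Endpoints by linear interpolation between flanking doses. Not reached: highest tested concentration assigned. At the TGI there is no net growth.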

Turning to `COC(=O)c1c(O)ccc2c1c1c(n2Cc2ccccc2OC)C(=O)c2ccccc2C1=O`, the TGI in the assay on A498 renal was more than 100 µM; in the assay on CCRF-CEM leukemia it was 17.7 µM; in the assay with DU-145 prostate, 30 µM; in the assay on HL-60(TB) leukemia it was 18.3 µM; with HT29 colon it was 21.3 µM; with K-562 leukemia, 17.3 µM. The TGI in the assay on MOLT-4 leukemia worked out at 1420 nM; in the assay with NCI-H522 lung it was 26.8 µM; with NCI/ADR-RES ovarian, 39.2 µM; in the assay on OVCAR-3 ovarian, 23 µM; in the assay with OVCAR-4 ovarian, 26.9 µM; with PC-3 prostate, 24.5 µM. In addition, the TGI was 36.1 µM with SK-MEL-28 melanoma; 53.7 µM with SK-OV-3 ovarian; 95.9 µM in the assay on SNB-19 CNS; 3.18 µM with SR leukemia; 29.8 µM in the assay with SW-620 colon; 9.58 µM in the assay with T-47D breast. Moreover, the TGI with UACC-257 melanoma was 55.1 µM.
